Data from paper PMC11161644, “An effective and rapidly degradable disinfectant from disinfection byproducts” (Nature Communications, 2024).
Where “and” joins values, the source holds several entries; their conditions need not be identical. Equal values may be shown once. Read-outs that look alike come from different tables or passages of the source.

Tests used:
[1] = system: P. dumerilii embryos; test: Developmental toxicity assay with P. dumerilii embryos, dilution factor of in-use concentration (EC50,DF), also after degradation in darkness; type: in vivo, Platynereis dumerilii
Source text: The DBP doses for 3-log E. coli reduction (pH 7.2) were set as the in-use concentrations, which were serially diluted and added to the P. dumerilii embryos at 12-h postfertilization. A dilution factor was defined as the ratio of the in-use concentration to the exposure concentration. Each exposure set contained a control sample (i.e., the embryos at 12-h postfertilization developed in seawater without the addition of DBPs). By 24-h postfertilization, normally developed embryos should have reached the first larval stage. An inverted stereomicroscope (×40 magnification) was used to observe the larvae. The normal development percentage was calculated as the ratio of normally developed embryos to total embryos. By plotting the curve of the normal development percentage versus the dilution factor, the EC50,DF value (i.e., the dilution factor corresponding to 50% of the normal development percentage of the control sample) was obtained using SigmaPlot 12. The developmental toxicity test was conducted in duplicate.

[2] = system: E. coli (ATCC 25922); test: Inactivation of E. coli by disinfectants (membrane filter enumeration, contact time 5 min); type: cell-based, Escherichia coli; conditions: for log reduction at 475 µg/mL / EC (3-log inactivation) / log reduction at 115 µg/mL / log reduction at 1500 µg/mL: Escherichia coli, ATCC25922, 5 min; for log reduction at 475 µg/mL: dose 475 mg L-1; for log reduction at 475 µg/mL / log reduction at 115 µg/mL / log reduction at 1500 µg/mL: 5 min; for log reduction at 115 µg/mL: dose 115 mg L-1; for log reduction at 115 µg/mL / log reduction at 1500 µg/mL: read-out: Log (N/N0); for log reduction at 1500 µg/mL: dose 1500 mg L-1
Protocol: (§1) The chemicals and reagents used are detailed in Supplementary Note 1. The bacteria E. coli (ATCC 25922) and S. aureus (ATCC 25923) were cultured aerobically in Luria-Bertani broth (Sigma-Aldrich) and Tryptone Soya broth (Oxoid), respectively, at 37 °C for 16 h. The fungus C. albicans (ATCC 14053) was aerobically cultured in Sabouraud Dextrose broth (Difco) at 37 °C for 24 h. The microorganism cells were harvested by centrifugation at 1200×g (10 min, 4 °C) and resuspended in phosphate-buffered saline (PBS, 10 mM, pH 7.2). The disinfection experiments were performed in PBS solutions (10 mM, pH 7.2) with an initial concentration of E. coli, S. aureus, or C. albicans of 10^6‒10^7 cells per milliliter. A contact time of 5 min was used in accordance with the recommended time range of 0.25–10 min by USEPA for surface disinfection. Preliminary tests were conducted to determine the appropriate range of DBP doses. The appropriate dose range was established when the lowest and highest doses could achieve <1-log and >3-log of microbial inactivation, respectively. Based on the preliminary results, a series of doses of DBPs were added to the cell suspensions at room temperature (22 ± 1 °C). After the contact time of 5 min, the microorganism cells were enumerated following a membrane filter method. Briefly, serial 10-fold dilutions were conducted for the disinfected samples and the control sample without disinfection. Each diluted suspension was subjected to filtration through 0.45-μm membrane, which was then placed on a petri dish. The Petri dishes containing E. coli, S. aureus, and C. albicans were incubated in m-FC medium (Becton Dickinson & Co) at 45 °C for 24 h, in Tryptone Soya broth at 37 °C for 24 h and in Sabouraud Dextrose broth at 37 °C for 24 h, respectively. After incubation, the colony-forming units within a statistically reasonable range (20–80) were counted.
The impact of pH on the disinfection efficiencies of DBPs was examined. E. coli (ATCC 25922) was used as the test strain. The disinfection experiments were performed in 10 mM PBS solutions (pH 6.2, 7.2, and 8.2) with an initial E. coli concentration of 10^6‒10^7 cells per milliliter. To initiate the disinfection, a DBP was dosed with a bacteria suspension at a predetermined concentration. After the given contact time (5 min) at room temperature (22 ± 1 °C), the bacteria were enumerated following the membrane filter method. The bacteria concentrations in the 10 mM PBS solutions (pH 6.2, 7.2, and 8.2) without the addition of DBPs were used as controls.

[3] = system: S. aureus (ATCC 25923); test: Inactivation of S. aureus (contact time 5 min); type: cell-based, Staphylococcus aureus; conditions: Staphylococcus aureus, ATCC25923, 5 min, dose 300 mg L-1, pH 7.2, contact time 5 min
Protocol: as §1

[4] = Degradation in seawater in darkness (pH 6.2, 7.2, 8.2); conditions: for Ln (C/C0): seawater pH 8.2, darkness
Protocol: To study the DBP degradation in seawater in darkness, a DBP was added at 10 mg L^−1 to 50 mL pretreated seawater (pH 8.2) in the quartz flasks. The flasks were wrapped with aluminum foil to simulate the dark condition. The samples were kept at 20 °C in darkness for 0‒120 h, during which the sample was adjusted to pH 6.2 and 7.2 or maintained at pH 8.2 by adding 4 mM phosphate buffer (pH 6.2, 7.2, and 8.2, respectively).
For the DBP samples with and without sunlight, aliquots were taken at a specific reaction time. The sample aliquots were analyzed using Agilent high-performance liquid chromatography (HPLC) equipped with a Poroshell 120 EC-C18 column (4.6 × 150 mm, 4 µm particle size, Agilent) and a UV detector. The mobile phase, consisting of water (pre-adjusted to pH 2 with phosphoric acid) and acetonitrile at 50/50 (v/v), was applied at a flow rate of 1.0 mL min^−1. PCMX, 2,4-dihalophenols and 5-halosalicylic acids were detected at the wavelength of 230 nm. 2,5-Dihalohydroquinones and 2,6-DCQ were detected at the wavelength of 280 nm. All the degradation experiments were conducted in duplicate.

[5] = pH 7.2, contact time 5 min, read-out: Dose for achieving 3-log inactivation of E. coli
[6] = pH 7.2, S. aureus, read-out: Log (N/N0)

For `Oc1ccc(Cl)cc1Cl` [2,4-DCPh, 2,4-Dichlorophenol], the “Normal development (%)” value ([1]; dilution factor 9.6524) was 0%, the “Normal development (%)” value ([1]; dilution factor 13.1623) was 7.691% and 7.509% and the “Normal development (%)” value ([1]; dilution factor 16.0873) was 35.5728% and 39.4272%. The “Normal development (%)” value ([1]; dilution factor 20.6836) was 55.5625% and 48.4375%, the “Normal development (%)” value ([1]; dilution factor 28.9571) was 80.2893% and 76.7107% and the “Normal development (%)” value ([1]; dilution factor 57.9141) was 81.6957% and 84.3043%. For the same compound, the log reduction at 475 µg/mL ([2]; pH 6.2, read-out: Log (N/N0), E. coli, pH 6.2) was 3.02, the EC (3-log inactivation) ([2]; pH 7.2, read-out: Dose for achieving 3-log inactivation of E. coli) was 472 µg/mL and the log reduction at 475 µg/mL ([2]; pH 7.2, read-out: Log (N/N0), E. coli, pH 7.2) was 3.32. For the same compound, the log reduction at 475 µg/mL ([2]; pH 8.2, read-out: Log (N/N0), E. coli, pH 8.2) was 3.29, the “E. coli inactivation rate constant k” value ([2]; pH 7.2, contact time 5 min) was 0.30 L mg‒1 h‒1 and the log reduction at 300 µg/mL ([3]; pH 7.2, read-out: Log (N/N0), S. aureus) was 0.626. The “Ln (C/C0)” value ([4]; 0 h) was 0, the “Ln (C/C0)” value ([4]; 24 h) was 0.008094 and 0.006005 and the “Ln (C/C0)” value ([4]; 48 h) was 0.007156 and 0.006397.
In the case of `Oc1ccc(I)cc1I` [2,4-DIPh, 2,4-diiodophenol], the “Normal development (%)” value ([1]; dilution factor 14.7221) is reported as 3.475% and 5.221%, the “Normal development (%)” value ([1]; dilution factor 16.1943) is reported as 15.5532% and 11.251% and the “Normal development (%)” value ([1]; dilution factor 17.0467) is reported as 28.4871% and 30.5605%. The “Normal development (%)” value ([1]; dilution factor 17.9937) was 62.9083% and 58.6107%, the “Normal development (%)” value ([1]; dilution factor 19.0522) was 71.0249% and 62.3085% and the “Normal development (%)” value ([1]; dilution factor 21.5924) was 85.4546% and 82.7272%. For the same compound, the log reduction at 115 µg/mL ([2]; pH 6.2, E. coli, pH 6.2) was 3.33, the log reduction at 115 µg/mL ([2]; pH 7.2, E. coli, pH 7.2) was 2.77 and the log reduction at 115 µg/mL ([2]; pH 8.2, E. coli, pH 8.2) was 3.02. The EC (3-log inactivation) [2, 5] was 112 µg/mL, the “E. coli inactivation rate constant k” value ([2]; pH 7.2, contact time 5 min) was 0.79 L mg‒1 h‒1 and the log reduction at 300 µg/mL [3, 6] was 4.49. The “Ln (C/C0)” value ([4]; 0 h) was 0, the “Ln (C/C0)” value ([4]; 24 h) was 0.00447 and 0.004669 and the “Ln (C/C0)” value ([4]; 48 h) was 0.01674 and 0.0143.
In the case of `Oc1cc(Br)c(O)cc1Br` [2,5-DBHQ, 2,5-dibromohydroquinone], the “Normal development (%)” value ([1]; dilution factor 366.306) is reported as 0%, the “Normal development (%)” value ([1]; dilution factor 439.567) is reported as 8.76% and 2.206% and the “Normal development (%)” value ([1]; dilution factor 549.459) is reported as 13.3508% and 11.7022%. The “Normal development (%)” value ([1]; dilution factor 732.612) was 55.6452% and 53.271%, the “Normal development (%)” value ([1]; dilution factor 1098.92) was 74.7747% and 73.7705% and the “Normal development (%)” value ([1]; dilution factor 2197.84) was 91.7072% and 82.9908%. The log reduction at 1500 µg/mL ([2]; pH 6.2, E. coli, pH 6.2) was 1.35, the log reduction at 1500 µg/mL ([2]; pH 7.2, E. coli, pH 7.2) was 3.28 and the log reduction at 1500 µg/mL ([2]; pH 8.2, E. coli, pH 8.2) was 3.84. The EC (3-log inactivation) [2, 5] was 1450 µg/mL, the “E. coli inactivation rate constant k” value ([2]; pH 7.2, contact time 5 min) was 0.03 L mg‒1 h‒1 and the log reduction at 300 µg/mL [3, 6] was 0.62. The “Relative concentration remaining (1 at 0 min)” value ([4]; pH 6.2, degradation time 0 min) was 1, the “Relative concentration remaining (1 at 0 min)” value ([4]; pH 6.2, degradation time 15 min) was 0.9903 and 1.013 and the “Relative concentration remaining (1 at 0 min)” value ([4]; pH 6.2, degradation time 30 min) was 1.0399 and 0.9876. The “Relative concentration remaining (1 at 0 min)” value ([4]; pH 6.2, degradation time 60 min) was 1.018 and 0.9782, the “Relative concentration remaining (1 at 0 min)” value ([4]; pH 6.2, degradation time 90 min) was 1.002 and 0.9911 and the “Relative concentration remaining (1 at 0 min)” value ([4]; pH 6.2, degradation time 120 min) was 0.974 and 0.967. The “Relative concentration remaining (1 at 0 min)” value ([4]; pH 6.2, degradation time 180 min) was 0.9787 and 0.9462, the “Relative concentration remaining (1 at 0 min)” value ([4]; pH 6.2, degradation time 240 min) was 0.9527 and 0.9358 and the “Relative concentration remaining (1 at 0 min)” value ([4]; pH 7.2, degradation time 0 min) was 1. For the same compound, the “Relative concentration remaining (1 at 0 min)” value ([4]; pH 7.2, degradation time 15 min) was 1.006 and 0.9535, the “Relative concentration remaining (1 at 0 min)” value ([4]; pH 7.2, degradation time 30 min) was 0.9742 and 0.9233 and the “Relative concentration remaining (1 at 0 min)” value ([4]; pH 7.2, degradation time 45 min) was 0.8634 and 0.8365. For the same compound, the “Relative concentration remaining (1 at 0 min)” value ([4]; pH 7.2, degradation time 60 min) was 0.7743 and 0.7531, the “Relative concentration remaining (1 at 0 min)” value ([4]; pH 7.2, degradation time 90 min) was 0.6443 and 0.5863 and the “Relative concentration remaining (1 at 0 min)” value ([4]; pH 7.2, degradation time 120 min) was 0.5356 and 0.4974. For the same compound, the “Relative concentration remaining (1 at 0 min)” value ([4]; pH 7.2, degradation time 180 min) was 0.3959 and 0.345, the “Relative concentration remaining (1 at 0 min)” value ([4]; pH 8.2, degradation time 0 min) was 1 and the “Relative concentration remaining (1 at 0 min)” value ([4]; pH 8.2, degradation time 3 min) was 0.7301 and 0.7188. The “Relative concentration remaining (1 at 0 min)” value ([4]; pH 8.2, degradation time 8 min) was 0.5509 and 0.4986, the “Relative concentration remaining (1 at 0 min)” value ([4]; pH 8.2, degradation time 12 min) was 0.3915 and 0.3688 and the “Relative concentration remaining (1 at 0 min)” value ([4]; pH 8.2, degradation time 16 min) was 0.2832 and 0.2676. For the same compound, the “Relative concentration remaining (1 at 0 min)” value ([4]; pH 8.2, degradation time 20 min) was 0.2193 and 0.1797, the “Relative concentration remaining (1 at 0 min)” value ([4]; pH 8.2, degradation time 25 min) was 0.1418 and 0.1248 and the half-life at 10 mg L−1 ([4]; pretreated seawater in darkness, pH 8.2) was 9 min. The “Ln (C/C0)” value ([4]; 0 min) was 0.
